Several values for one entry are separate records, joined by “and”; a condition that tells them apart may be missing. Equal entries are not always repeated. Entries after “also recorded” stand apart in the source; their conditions may differ. Where two headings read alike, the source gives them in different places. Numbered stars: 1 amine (or outer) side, 2 acyl side, 3 side chain; on linkers, the order of the positions; unused ones are H or OH. Bridge positions count the residues as written; N and C are the ends. Square brackets hold non-standard residues; d marks the D form. Peptide text beside a SMILES is read from it. * marks the point of attachment. ξ: configuration not given here. Lys(5-FITC)NH2 = NC(=O)[C@H](CCCCNC(=S)Nc1ccc2c(c1)C(=O)OC21c2ccc(O)cc2Oc2cc(O)ccc21)N*; FITC = O=C1OC2(c3ccc(O)cc3Oc3cc(O)ccc32)c2ccc(NC(=S)*)cc21; dβ3h(hPhe) = O=C(C[C@@H](CCc1ccccc1)N[*:1])[*:2]; Phe(4-F) = N[C@@H](Cc1ccc(F)cc1)C(=O)O; d2Nal = N[C@H](Cc1ccc2ccccc2c1)C(=O)O; X1 = CC(C)(CO[*:2])C(=O)C(=O)[*:1]; ξ2Nal = NC(Cc1ccc2ccccc2c1)C(=O)O; dNle = CCCC[C@@H](N)C(=O)O; ξPip = O=C(O)C1CCCCN1
Tests used:
A549 cells [1] = system: A549 cells
H1299 lung cancer cells = type: cell-based; conditions: MTT assay
Description: MTT assays (17) were performed with H1299 lung cancer cells. One hundred μL of H1299 cells (0.5×10^5 cells/mL) were seeded in each well of a 96-well culture plate and allowed to grow overnight in Advanced RPMI medium supplemented with 10% fetal bovine serum (FBS) and 1% penicillin-streptomycin. Varying concentrations of cyclic peptide (0-25 μM) were added to the each well and the cells were incubated at 37° C. with 5% CO2 for 72 hours. Ten μL of a MTT stock solution (Roche) was added into each well. The plate was incubated at 37° C. for 4 h. Then 100 μL of SDS-HCl solubilizing buffer was added into each well, and the resulting solution was mixed thoroughly. The plate was incubated at 37° C. overnight. The absorbance of the formazan product was measured at 570 nm using a Molecular Devices Spectramax M5 plate reader. Each experiment was performed in triplicates and the cells without any peptide added were treated as control.

[2] = target: T1, K-Ras / Raf RBD interaction (Homo sapiens, UniProt P01116, G12V); experiment: HTRF assay, inhibition of Ras-Raf RBD interaction; type: binding;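 also: HTRF signal read after overnight incubation of the assay plate at 4 °C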
T1 construct: The G12V mutant K-Ras (amino acids 1-185) was recombinantly fused; GST (N, cleaved yes); made in house; host or cells: Escherichia coli BL21
Description: Recombinant HA-tagged K-Ras (no GST, 50 nM), GST-Raf RBD (50 nM each), a monoclonal anti-HA antibody labeled with acceptor d2 (2 μg/mL), a monoclonal anti-GST antibody labeled with donor Tb (0.25 μg/mL) (Cisbio), and increasing concentrations of cyclic peptide (0-20 μM) were mixed inPBS (total volume of 20 μL) in a 384-well plate. The plate was incubated overnight at 4° C. and the HTRF signal was measured on a Molecular Devices Spectramax M5 or a Tecan infinite M1000 Pro plate reader. The data were analyzed by Prism 6.0 from Graphpad Software, Inc. (La Jolla, Calif.) and IC50 values were obtained by fitting the data to dose-response-inhibition curve.

[3] = system: phosphorylation of Akt, Mek and Erk in A549 cells; experiment: Western blot of Ras signaling in A549 cells; type: cell-based; conditions: 10 μM, 10 min
EGFR phosphorylation = experiment: IP/Western blot of EGFR phosphorylation; type: cell-based; conditions: 13 μM
Description: (§1) Two well characterized Ras effector pathways are the Raf-Mek-Erk and PI3K-Akt signaling pathways (Karnoub, A. E. et al. (2008) Nat Rev. Mol. Cell Biol. 9:517). To determine whether the cyclic peptides inhibited the intracellular Ras activity, Applicants monitored the phosphorylation levels of Mek, Erk, and Akt in cells before and after treatment with the Ras inhibitors. […] In order to rule out that the observed downregulation of P-Mek, P-Erk and P-Akt is caused by inhibition of EGFR signaling, the effect of Cyclosrasin 9A5 on the phosphorylation of the EGFR was tested by performing an IP/Western Blot experiment (FIG. 3E). Active, signaling EGFR is highly autohophosphorylated.

[4] = system: actin filaments in A549 cells; experiment: Actin filament staining (phalloidin-FITC) by confocal microscopy; type: cell-based; conditions: 10 μM, 15 min
Description: The inhibition of Ras affects proliferation and survival of cells. […] These morphological changes are consistent with a collapse of the actin cytoskeleton. The dephosphorylation of cofilin activates the actin filament severing activity of this protein. The severing of actin filaments results in the collapse of the actin cytoskeleton. […] Without actin filaments, cells tend to round up and lose attachment to the substrate.

[5] = system: phosphorylation of Akt, Mek and Erk in H1650 cells; experiment: Western blot of Ras signaling in H1650 cells; type: cell-based; conditions: 10 μM, 10 min
Description: (§2) In the MTT assay, A549 cells were also found to be more resistant to the Ras inhibitors than other cell lines.
(§3) In H1975 the EGFR is also mutated. Certain mutated EGFR cannot be inhibited with Tarceva® due to the resistance conferring T790M mutation which precludes binding of the drug.

[6] = system: phosphorylation of Akt, Mek and Erk in H1975 cells; experiment: Western blot of Ras signaling in H1975 cells; type: cell-based; conditions: 10 μM, 10 min
Description: as §2, §3

A549 cells [7] = experiment: Cellular uptake of FITC-labeled peptides (live-cell confocal microscopy, FACS)
[8] = system: phosphorylation of Akt, Mek and Erk in H1299 cells; experiment: Western blot of Ras signaling (Akt, Mek, Erk phosphorylation) in H1299 cells; type: cell-based
Description: as §1, §2

[9] = inability to cross the cell membrane; cited from earlier work
[10] = target: maltose-binding protein-XIAP BIR3 domain fusion (Homo sapiens, UniProt P98170); experiment: FA binding of FITC-9A5 to control protein MBP-XIAP BIR3
[11] = inhibition of Ras-Raf interaction, read-out: HTRF IC50

T1 sequence (P01116 1-185 isoform P01116-2 G12V): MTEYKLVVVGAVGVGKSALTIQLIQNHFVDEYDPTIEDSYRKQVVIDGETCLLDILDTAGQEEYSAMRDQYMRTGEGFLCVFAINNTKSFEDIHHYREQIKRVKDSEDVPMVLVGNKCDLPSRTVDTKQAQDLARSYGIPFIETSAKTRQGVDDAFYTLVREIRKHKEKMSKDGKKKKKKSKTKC
Sequence of maltose-binding protein-XIAP BIR3 domain fusion (P98170 241-356 limits assumed): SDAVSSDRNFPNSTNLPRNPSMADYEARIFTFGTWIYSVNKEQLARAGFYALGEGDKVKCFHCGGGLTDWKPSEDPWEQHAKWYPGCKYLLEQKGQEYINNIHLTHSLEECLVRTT

## C[C@H]1NC(=O)[C@H](CCCNC(=N)N)NC(=O)[C@H](Cc2c[nH]c3ccccc23)NC(=O)[C@H](CCCNC(=N)N)NC(=O)[C@H](Cc2ccc(F)cc2)NC(=O)[C@H](CCCNC(=N)N)NC(=O)[C@@H](Cc2ccc3ccccc3c2)NC(=O)[C@H](CCCNC(=N)N)NC(=O)[C@H](CCCNC(=N)N)NC(=O)[C@H](CCC(N)=O)NC1=O [Cyclorasin 12A, (Arg-Arg-nal-Arg-Fpa-Arg-Trp-Arg-ala-Gln)] (cyclo(RR[d2Nal]R[Phe(4-F)]RWR[dA]Q); ring closure inferred)
A549 cells [1]
  cell permeability: cell permeable
H1299 lung cancer cells
  anti-proliferative activity against lung cancer cells (in words): weak
[2]; [11]
  IC50: 1000 nM

## CCCC[C@H]1NC(=O)[C@H](Cc2ccc(F)cc2)NC(=O)[C@H](CCCNC(=N)N)NC(=O)[C@@H](Cc2ccc3ccccc3c2)NC(=O)[C@H](CCCNC(=N)N)NC(=O)[C@H](CCCNC(=N)N)NC(=O)[C@H](CCCNC(=N)N)NC(=O)[C@@H](C)NC(=O)[C@H]([C@@H](C)O)NC(=O)[C@H](Cc2c[nH]c3ccccc23)NC(=O)[C@H](CCC(N)=O)NC1=O [Cyclorasin 9A5, (Trp-Thr-ala-Arg-Arg-Arg-nal-Arg-Fpa-nle-Gln)] (cyclo(WT[dA]RRR[d2Nal]R[Phe(4-F)][dNle]Q))
[3]
  Mek, Erk and Akt phosphorylation: significant Mek and Erk phosphorylation remained
EGFR phosphorylation
  EGFR phosphorylation level: does no affect; also recorded: no effect
[4]
  actin filaments in treated cells: absent
[5]
  Mek, Erk and Akt phosphorylation: almost completely abolished; also recorded: can be inhibited
[6]
  Mek, Erk and Akt phosphorylation: almost completely abolished; also recorded: can be inhibited
A549 cells [7]; Gln8 replaced with L- or D-arginine
  cell permeability relative to earlier peptides: improved cell permeability
[2]
  IC50: 120 nM
[8]; H1299 cells unstimulated with EGF, 10 μM for 10 min
  basal phosphorylation of Mek and Akt: inhibited
[8]; H1299 cells, 10 μM, 10 min
  Mek, Erk and Akt phosphorylation: almost completely abolished
[8]; H1299 cells, 13 μM, 5 min
  EGF-induced phosphorylation of Akt and Mek: significant reduction
[8]; H1299 cells, 13 μM, time course
  phosphorylation level of Erk: decreased, but to a lesser extent
[8]; H1299 cells, 13 μM, ≥10 min
  EGF-induced phosphorylation of Akt and Mek: completely abolished

## CCCC[C@H]1NC(=O)[C@H](Cc2ccc(F)cc2)NC(=O)[C@H](CCCN=C(N)N)NC(=O)C(Cc2ccc3ccccc3c2)NC(=O)[C@H](CCCN=C(N)N)NC(=O)[C@H](CCCN=C(N)N)NC(=O)[C@H](CCC(N)=O)NC(=O)C[C@@H](CCc2ccccc2)NC(=O)C2CCCCN2C(=O)C(=O)C(C)(C)COC1=O (stereo partly shown) [Compound 12] ([ξPip][dβ3h(hPhe)]QRR[ξ2Nal]R[Phe(4-F)][dNle]; linker N-C via X1)
[9]
  cellular activity: lacked cellular activity

## CCCC[C@H]1NC(=O)[C@H](Cc2ccc(F)cc2)NC(=O)[C@H](CCCNC(=N)N)NC(=O)[C@@H](Cc2ccc3ccccc3c2)NC(=O)[C@H](CCCNC(=N)N)NC(=O)[C@H](CCCNC(=N)N)NC(=O)[C@H](CCC(=O)N[C@@H](CCCCNC(=S)Nc2ccc3c(c2)C(=O)OC32c3ccc(O)cc3Oc3cc(O)ccc32)C(N)=O)NC(=O)[C@@H](C)NC(=O)[C@H]([C@@H](C)O)NC(=O)[C@H](Cc2c[nH]c3ccccc23)NC(=O)[C@@H](CO)NC1=O [Cyclorasin 9A, (Arg-Arg-nal-Arg-Fpa-nle-ser-Trp-Thr-ala-Gln)] (cyclo(RR[d2Nal]R[Phe(4-F)][dNle][dS]WT[dA]E(Lys(5-FITC)NH2)))
A549 cells [7]; A549 cells, 10 μM FITC-labeled peptide, 1.5 h
  cell permeability: cell permeable
H1299 lung cancer cells
  anti-proliferative activity against lung cancer cells (in words): weak
[2]; [11]
  IC50: 650 ± 110 nM

## CCCC[C@H]1NC(=O)[C@H](Cc2ccc(F)cc2)NC(=O)[C@H](CCCNC(=N)N)NC(=O)[C@@H](Cc2ccc3ccccc3c2)NC(=O)[C@H](CCCCNC(=S)Nc2ccc3c(c2)C(=O)OC32c3ccc(O)cc3Oc3cc(O)ccc32)NC(=O)[C@H](CCCNC(=N)N)NC(=O)[C@H](CCCNC(=N)N)NC(=O)[C@@H](C)NC(=O)[C@H]([C@@H](C)O)NC(=O)[C@H](Cc2c[nH]c3ccccc23)NC(=O)[C@H](CCC(N)=O)NC1=O [FITC-9A5] (cyclo(K(FITC)[d2Nal]R[Phe(4-F)][dNle]QWT[dA]RR))
[10]
  Kd: ~30000 nM and 30000 nM
A549 cells [7]; A549 cells, 10 μM FITC-labeled peptide
  mean fluorescence intensity relative to FITC-9A54 (FACS): ~5 fold
A549 cells [7]; A549 cells, 10 μM FITC-labeled peptide, 15 min
  intracellular fluorescence pattern (confocal microscopy): intense, defuse fluorescence throughout the cytoplasm

— patent publication US10736932B2, “Small molecule Ras inhibitors” (Ohio State Innovation Foundation, priority 2014, dated 2020)
